Experimental data reported in patent US6503926B2, “Chemokine receptor antagonists and methods of use therefor” (Millennium Pharmaceuticals, Inc., priority 1998, dated 2003).

Biological target: T1, THP-1 cell membranes (RANTES / MIP-1α binding; chemokine receptor, believed CCR1) (Homo sapiens, UniProt P32246)
T1 sequence (P32246 1-355): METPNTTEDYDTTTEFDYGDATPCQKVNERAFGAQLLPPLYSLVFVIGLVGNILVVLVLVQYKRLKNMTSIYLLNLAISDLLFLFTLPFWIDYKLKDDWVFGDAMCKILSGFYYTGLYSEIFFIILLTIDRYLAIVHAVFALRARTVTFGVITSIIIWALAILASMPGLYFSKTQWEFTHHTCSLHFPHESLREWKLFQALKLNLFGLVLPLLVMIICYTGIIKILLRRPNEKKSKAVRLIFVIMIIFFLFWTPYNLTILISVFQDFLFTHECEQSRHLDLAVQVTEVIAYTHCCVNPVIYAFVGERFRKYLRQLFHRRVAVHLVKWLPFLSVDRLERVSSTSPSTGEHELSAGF
Experiment: Receptor binding assay, 125I-RANTES or 125I-MIP-1α binding to THP-1 cell membranes
Conditions: 125I-RANTES or 125I-MIP-1α as ligand, 60 min at room temperature, read-out: IC50 (inhibitor concentration required for 50% inhibition of specific binding)
Method: Membranes were prepared from THP-1 cells (ATCC #TIB202). Cells were harvested by centrifugation, washed twice with PBS (phosphate-buffered saline), and the cell pellets were frozen at -70 to -85° C. The frozen pellet was thawed in ice-cold lysis buffer consisting of 5 mM HEPES (N-2-hydroxyethylpiperazine-N'-2-ethane-sulfonic acid) pH 7.5, 2 mM EDTA (ethylenediaminetetraacetic acid), 5 μg/ml each aprotinin, leupeptin, and chymostatin (protease inhibitors), and 100 μg/ml PMSF (phenyl methane sulfonyl fluoride-also a protease inhibitor), at a concentration of 1 to 5×10^7 cells/ml. This procedure results in cell lysis. The suspension was mixed well to resuspend all of the frozen cell pellet. Nuclei and cell debris were removed by centrifugation of 400×g for 10 minutes at 4° C. The supernatant was transferred to a fresh tube and the membrane fragments were collected by centrifugation at 25,000×g for 30 minutes at 4° C. The supernatant was aspirated and the pellet was resuspended in freezing buffer consisting of 10 mM HEPES pH 7.5, 300 mM sucrose, 1 μg/ml each aprotinin, leupeptin, and chymostatin, and 10 μg/ml PMSF (approximately 0.1 ml per each 10^8 cells). All clumps were resolved using a minihomogenizer, and the total protein concentration was determined using a protein assay kit (Bio-Rad, Hercules, Calif., cat #500-0002). The membrane solution was then aliquoted and frozen at -70 to -85° C. until needed. Binding Assays-utilized the membranes described above. Membrane protein (2 to 20 μg total membrane protein) was incubated with 0.1 to 0.2 nM ^125I-labeled RANTES or MIP-1α with or without unlabeled competitor (RANTES or MIP-1α) or various concentrations of compounds. The binding reactions were performed in 60 to 100 μl of a binding buffer consisting of 10 mM HEPES pH 7.2, 1 mM CaCl2, 5 mM MgCl2, and 0.5% BSA (bovine serum albumin), for 60 min at room temperature. The binding reactions were terminated by harvesting the membranes by rapid filtration through glass fiber filters (GF/B or GF/C, Packard) which were presoaked in 0.3% polyethyleneimine. The filters were rinsed with approximately 600 μl of binding buffer containing 0.5 M NaCl, dried, and the amount of bound radioactivity was determined by scintillation counting in a Topcount beta-plate counter. […] Specific binding is defined as the total binding minus the non-specific binding; non-specific binding is the amount of cpm still detected in the presence of excess unlabeled Rantes or ^125MIP-1α.

Compound	IC50
COc1cccc(C(=CCCN2CCC(O)(c3ccc(Cl)cc3)CC2)c2cccnc2)c1 [Example 1, 4-(4-Chlorophenyl)-1-[4-(3-methoxyphenyl)-4-(3-pyridinyl)-3-butenyl]piperidin-4-ol]	< 1000 nM
OC1(c2ccc(Cl)cc2)CCN(CCC=C(c2ccccc2)c2cccnc2)CC1 [Example 2, 4-(4-Chlorophenyl)-1-[4-phenyl-4-(3-pyridinyl)-3-butenyl]piperidin-4-ol]	< 1000 nM
OC1(c2ccc(Cl)cc2)CCN(CCC=C(c2cccnc2)c2ccnc(Br)c2)CC1 [Example 4, 1-[4-(2-Bromo-4-pyridinyl)-4-(3-pyridinyl)-3-butenyl]-4-(4-chlorophenyl)piperidin-4-ol]	> 1000 nM
COc1ccc(OC)c(C(=CCCN2CCC(O)(c3ccc(Cl)cc3)CC2)c2cccnc2)c1 [Example 3, 4-(4-Chlorophenyl)-1-[4-(2,5-dimethoxyphenyl)-4-(3-pyridinyl)-3-butenyl]piperidin-4-ol]	< 1000 nM
